Assays:
[1] = Metabolic stability in dog liver microsomes assessed as unchanged parent compound remaining at 10 uM incubated for 60 mins in presence of [13C2,15N-glycine]GSH and NADPH by LC-MS/MS analysis; assay type: ADME, Canis lupus familiaris, Microsome; settings: read-out: Stabilty
[2] = Metabolic stability in human liver microsomes assessed as half life; assay type: ADME, Microsome
[3] = AUC (0 to infinity) in CD-1 mouse at 10 mg/kg, po; assay type: ADME, organism-based; parameters: time infinity, route oral, dose 10 mg/kg; settings: in vivo
[4] = Cmax in CD-1 mouse at 10 mg/kg, po; assay type: ADME, organism-based; parameters: route oral, dose 10 mg/kg; settings: in vivo
[5] = Clearance in CD-1 mouse at 2 mg/kg, iv; assay type: ADME, organism-based; settings: in vivo
[6] = Half life in CD-1 mouse at 2 mg/kg, iv; assay type: ADME, organism-based; settings: in vivo
[7] = Volume of distribution in steady state in CD-1 mouse at 2 mg/kg, iv; assay type: ADME, organism-based; settings: in vivo, read-out: Vdss
[8] = Oral bioavailability in CD-1 mouse at 10 mg/kg; assay type: ADME, organism-based; settings: in vivo
[9] = Metabolic stability in dog liver microsomes assessed as unchanged parent compound remaining at 10 uM incubated for 60 mins in presence of [13C2,15N-glycine]GSH by LC-MS/MS analysis; assay type: ADME, Canis lupus familiaris, Microsome; settings: read-out: Stabilty
[10] = target: Androgen receptor (Homo sapiens, UniProt P10275, F877L); test: Antagonist activity at AR F877L mutant (unknown origin) transfected in human LNCAP cells assessed as inhibition of R1881-stimulated receptor transcriptional activation measured after 20 to 24 hrs by Steady-Glo luciferase assay; assay type: cell-based
[11] = target: T1, Androgen receptor (Homo sapiens, UniProt P10275); assay type: tissue-based, LNCaP
T1 sequence (P10275 whole entry): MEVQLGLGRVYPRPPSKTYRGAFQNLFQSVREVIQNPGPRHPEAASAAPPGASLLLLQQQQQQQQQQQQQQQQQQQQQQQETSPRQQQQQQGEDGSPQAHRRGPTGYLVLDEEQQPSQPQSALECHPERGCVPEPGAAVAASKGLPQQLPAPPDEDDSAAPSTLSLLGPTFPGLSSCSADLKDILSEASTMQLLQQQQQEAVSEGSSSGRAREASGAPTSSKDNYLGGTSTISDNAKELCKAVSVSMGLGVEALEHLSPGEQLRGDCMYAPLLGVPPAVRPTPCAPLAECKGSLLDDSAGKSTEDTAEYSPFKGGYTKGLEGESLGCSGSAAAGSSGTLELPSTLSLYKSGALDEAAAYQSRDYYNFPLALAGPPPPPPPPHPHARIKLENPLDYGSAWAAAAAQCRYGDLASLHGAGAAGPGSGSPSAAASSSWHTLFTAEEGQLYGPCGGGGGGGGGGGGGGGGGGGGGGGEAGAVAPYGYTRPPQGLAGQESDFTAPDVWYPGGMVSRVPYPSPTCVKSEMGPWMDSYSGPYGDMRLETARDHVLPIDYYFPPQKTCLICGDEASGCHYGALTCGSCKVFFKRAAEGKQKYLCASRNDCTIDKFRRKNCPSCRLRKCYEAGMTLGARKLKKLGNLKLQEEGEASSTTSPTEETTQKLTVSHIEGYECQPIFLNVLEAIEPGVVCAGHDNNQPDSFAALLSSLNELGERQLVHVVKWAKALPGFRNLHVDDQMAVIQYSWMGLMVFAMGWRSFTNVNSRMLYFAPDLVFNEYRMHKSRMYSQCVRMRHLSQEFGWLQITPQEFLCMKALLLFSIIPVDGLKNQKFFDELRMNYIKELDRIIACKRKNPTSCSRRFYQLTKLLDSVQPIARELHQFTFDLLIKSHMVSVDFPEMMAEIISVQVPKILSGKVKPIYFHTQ
Description: Antagonist activity at wild type androgen receptor in castration-resistant human LNCaP cells assessed as inhibition of R1881-stimulated receptor transcriptional activation measured after 20 to 24 hrs by Steady-Glo luciferase assay

Sequence of Androgen receptor (Homo sapiens, UniProt P10275, F877L) (P10275 whole entry F877L): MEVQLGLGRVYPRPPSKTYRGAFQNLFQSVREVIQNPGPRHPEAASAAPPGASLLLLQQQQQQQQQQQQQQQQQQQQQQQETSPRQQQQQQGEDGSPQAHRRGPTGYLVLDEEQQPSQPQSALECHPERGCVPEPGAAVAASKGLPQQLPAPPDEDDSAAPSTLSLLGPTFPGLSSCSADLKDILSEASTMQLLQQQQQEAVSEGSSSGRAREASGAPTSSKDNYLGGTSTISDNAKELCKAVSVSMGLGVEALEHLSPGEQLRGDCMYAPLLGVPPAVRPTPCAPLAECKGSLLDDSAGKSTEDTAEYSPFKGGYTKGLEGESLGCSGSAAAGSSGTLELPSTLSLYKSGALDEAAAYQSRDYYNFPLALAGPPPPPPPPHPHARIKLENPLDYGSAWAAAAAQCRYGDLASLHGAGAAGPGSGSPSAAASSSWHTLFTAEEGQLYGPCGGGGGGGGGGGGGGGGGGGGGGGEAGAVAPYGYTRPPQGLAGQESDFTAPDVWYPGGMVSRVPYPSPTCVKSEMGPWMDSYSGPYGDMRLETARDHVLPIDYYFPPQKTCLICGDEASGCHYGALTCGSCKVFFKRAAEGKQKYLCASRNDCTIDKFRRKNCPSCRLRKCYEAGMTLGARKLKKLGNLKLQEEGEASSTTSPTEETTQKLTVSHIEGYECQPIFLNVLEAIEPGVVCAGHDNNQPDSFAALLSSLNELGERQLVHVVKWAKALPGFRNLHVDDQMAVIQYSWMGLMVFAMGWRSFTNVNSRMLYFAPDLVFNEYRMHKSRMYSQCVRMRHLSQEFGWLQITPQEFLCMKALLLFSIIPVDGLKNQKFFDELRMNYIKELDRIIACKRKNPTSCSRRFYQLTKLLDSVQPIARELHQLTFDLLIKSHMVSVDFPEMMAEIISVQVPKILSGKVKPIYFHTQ

SMILES | remaining at 1 h, 10 µM [1] | half-life [2] | AUC(0-inf) [3] | Cmax [4] | clearance [5] | half-life [6] | Vd [7] | bioavailability [8] | remaining at 1 h, 10 µM [9] | IC50 [10] | IC50 [11]
N#Cc1ncc(N2C(=O)C3(CCC3)N(c3ccc(O)cc3)C2=S)cc1C(F)(F)F | 78.7% |  |  |  |  |  |  |  |  |  | 
CN1C(=S)N(c2cnc(C#N)c(C(F)(F)F)c2)C(=O)C12Cc1ccc(OC3CCNCC3)cc1C2 (stereo not given) | 98.4% | > 180 min | 15200 ng·h/mL | 0.92 µM | 11.5 mL/min/kg | 1000 min | 16.3 L/kg | 97% | 100% |  | 
CNC(=O)c1cc2c(cc1F)C[C@@]1(C2)C(=O)N(c2cnc(C#N)c(C(F)(F)F)c2)C(=S)N1C(C)C |  | 118 min | 39100 ng·h/mL | 3.7 µM | 4 mL/min/kg | 414 min | 2.3 L/kg | 92% |  |  | 
CNC(=O)c1cc2c(cc1F)CC1(C2)C(=O)N(c2ccc(C#N)c(C(F)(F)F)c2)C(=S)N1C(C)C (stereo not given) |  | > 180 min | 107000 ng·h/mL | 8.85 µM | 1.6 mL/min/kg | 888 min | 1.7 L/kg | 102% |  |  | 
CNC(=O)c1cc2c(cc1F)C[C@@]1(C2)C(=O)N(c2ccc(C#N)c(C(F)(F)F)c2)C(=S)N1C(C)C |  | > 180 min | 50400 ng·h/mL | 5.81 µM | 3 mL/min/kg | 312 min | 1.8 L/kg | 91% |  |  | 
CNC(=O)c1cc2c(cc1F)C[C@]1(C2)C(=O)N(c2ccc(C#N)c(C(F)(F)F)c2)C(=S)N1C(C)C |  | > 180 min | 104000 ng·h/mL | 5.86 µM | 0.9 mL/min/kg | 618 min | 1.7 L/kg | 63% |  |  | 
CNC(=O)c1cc2c(cc1F)C[C@]1(C2)C(=O)N(c2cnc(C#N)c(C(F)(F)F)c2)C(=S)N1C(C)C |  | 135 min | 99400 ng·h/mL | 6.1 µM | 1.3 mL/min/kg | 948 min | 1.9 L/kg | 80% |  |  | 
CNC(=O)c1ccc2c(c1)CC1(C2)NC(=S)N(c2cnc(C#N)c(C(F)(F)F)c2)C1=O (stereo not given) |  |  |  |  |  |  |  |  |  | > 15 µM | > 15 µM
CNC(=O)c1cc2c(cc1F)CC1(C2)C(=O)N(c2cnc(C#N)c(C(F)(F)F)c2)C(=S)N1C(C)C (stereo not given) |  | > 180 min | 27000 ng·h/mL | 3.69 µM | 3.4 mL/min/kg | 1170 min | 4.8 L/kg | 61% |  |  | 
CNC(=O)c1ccc2c(c1)CC1(C2)C(=O)N(c2ccc(C#N)c(C(F)(F)F)c2)C(=O)N1C (stereo not given) |  |  |  |  |  |  |  |  |  | 1.66 µM | > 30 µM
CNC(=O)c1ccc2c(c1)CC1(C2)NC(=S)N(c2ccc(C#N)c(C(F)(F)F)c2)C1=O (stereo not given) |  |  |  |  |  |  |  |  |  | 5.01 µM | 11.2 µM
CN1C(=S)N(c2cnc(C#N)c(C(F)(F)F)c2)C(=O)C12Cc1ccc(O)cc1C2 (stereo not given) | 52.3% |  |  |  |  |  |  |  | 100% |  | 

Reference: ChEMBL document CHEMBL4834497, “Spirocyclic Thiohydantoin Antagonists of F877L and Wild-Type Androgen Receptor for Castration-Resistant Prostate Cancer” (ACS Med Chem Lett, 2021)
